Reference: PMC5640644, “HDX reveals the conformational dynamics of DNA sequence specific VDR co-activator interactions” (Nature Communications, 2017)

Target: T1, VDRRXRα heterodimer (Homo sapiens, UniProt P11473, DEL151-190)
T1 construct: Full-length WT His-hVDR (Δ (151–190)) and WT Flag-h RXRα were expressed in a baculovirus system; His; made in house; host or cells: baculovirus system (VDR, RXRα); Escherichia coli BL21 DE3 (SRC1 RID)
T1 sequence (P11473 with tags, fused parts or gaps DEL151-190): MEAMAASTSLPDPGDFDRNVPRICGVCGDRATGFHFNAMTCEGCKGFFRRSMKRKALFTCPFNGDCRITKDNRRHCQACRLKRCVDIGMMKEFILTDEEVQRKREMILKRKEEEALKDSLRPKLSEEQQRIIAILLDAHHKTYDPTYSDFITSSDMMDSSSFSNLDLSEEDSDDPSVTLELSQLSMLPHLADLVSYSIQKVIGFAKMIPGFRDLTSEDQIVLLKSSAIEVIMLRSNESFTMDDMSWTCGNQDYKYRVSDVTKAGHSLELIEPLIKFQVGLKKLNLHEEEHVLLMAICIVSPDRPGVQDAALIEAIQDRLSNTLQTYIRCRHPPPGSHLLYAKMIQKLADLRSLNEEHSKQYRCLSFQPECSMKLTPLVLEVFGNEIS
T1 sequence (P19793 1-462 partner): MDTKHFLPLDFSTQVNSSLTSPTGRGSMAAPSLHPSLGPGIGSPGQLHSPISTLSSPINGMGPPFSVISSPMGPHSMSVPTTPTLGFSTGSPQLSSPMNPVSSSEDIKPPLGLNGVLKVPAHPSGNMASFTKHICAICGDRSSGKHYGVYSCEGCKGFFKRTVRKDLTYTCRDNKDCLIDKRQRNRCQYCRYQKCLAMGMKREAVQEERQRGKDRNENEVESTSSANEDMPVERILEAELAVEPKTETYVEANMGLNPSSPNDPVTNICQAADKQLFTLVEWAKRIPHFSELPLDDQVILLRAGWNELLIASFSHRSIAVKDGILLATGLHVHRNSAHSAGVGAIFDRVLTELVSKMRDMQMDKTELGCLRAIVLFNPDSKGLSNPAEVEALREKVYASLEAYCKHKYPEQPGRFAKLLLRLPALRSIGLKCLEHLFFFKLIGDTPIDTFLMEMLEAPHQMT
T1 sequence (Q15788 627-786 partner limits assumed): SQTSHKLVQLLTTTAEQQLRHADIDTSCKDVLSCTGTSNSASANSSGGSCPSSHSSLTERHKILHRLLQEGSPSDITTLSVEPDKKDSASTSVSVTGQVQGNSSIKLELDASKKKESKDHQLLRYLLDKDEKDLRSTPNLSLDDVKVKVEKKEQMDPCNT
Assay: Differential HDX-MS of liganded full-length VDRRXRα heterodimer with DNA VBS and SRC1 RID
Type: binding
Details: for decrease in solvent exchange within H12 of VDR upon SRC1 RID binding: ligand-heterodimer-DR3 or -DR3 half-site complex (both alike), aa412−419 for Cmpd1; for ΔΔHDX in the VDR hinge region (aa97−108): ΔHDX heterodimer:agonist ± DR3 minus ΔHDX heterodimer:agonist ± DR3 half-site
Experimental: The final protein buffer was 50 mM Tris (pH 8.0), 150 mM NaCl, 10% glycerol and 2 mM DTT.
The DR3 VBS 5′-[…]-3′, DR3 half-site VBS 5′-[…]-3′, BGLAP VBS 5′-[…]-3′, BGLAP* VBS 5′-[…]-3′ and TRPV6 VBS 5′-[…]-3′ duplex oligonucleotides were purchased from Integrated DNA Technologies. […] SRC1 RID was added in a 2× molar ratio to heterodimer, and oligonucleotide (VBS) was mixed with the protein complex as needed (1.5× molar ratio). […]
Solution-phase amide HDX experiments were carried out with a fully automated system (CTC HTS PAL, LEAP Technologies, Carrboro, NC; housed inside a 4 °C cabinet) as follows.
HDX-MS analysis: 10 μM of the apo protein was mixed with 1:10 molar excess of ligand and incubated for 2 h at 4 °C for complex formation before subjecting them to HDX analysis. For the differential HDX experiments, 5 μl of either the apo or the liganded protein complex with DNA and SRC1 RID were mixed with 20 μl of D2O-containing HDX buffer (50 mM Tris, pH 8.0, 150 mM NaCl, and 2 mM DTT) and incubated at 4 °C for 0 s, 10 s, 30 s, 60 s, 300 s, 900 s, or 3,600 s. Following on-exchange, unwanted forward-exchange or back-exchange was minimized and the protein was denatured by the addition of 25 μl of a quench solution (1% v/v TFA in 3 M urea and 50 mM TCEP). Samples were then immediately passed through an immobilized pepsin column (prepared in house) at 50 μl min-1 (0.1% v/v TFA, 15 °C) and the resulting peptides were trapped and desalted on a 1.0 mm × 10 mm C8 trap column (Hypersil Gold, Thermo Fisher, Grand Island, NY). The bound peptides were then gradient-eluted (5–50% CH3CN v/v and 0.3% v/v formic acid) across a 1.0 mm × 50 mm C18 separation column (Hypersil Gold, Thermo Fisher, Grand Island, NY) for 6 min. Sample handling and peptide separation were conducted at 4 °C. The eluted peptides were then subjected to electrospray ionization directly coupled to a high resolution Orbitrap mass spectrometer (LTQ Orbitrap XL with ETD, Q Exactive, or Exactive, Thermo Fisher Scientific, San Jose, CA). Each HDX experiment was carried out in triplicate with a single preparation of each protein-ligand complex. The intensity weighted mean m/z centroid value of each peptide envelope was calculated and subsequently converted into a percentage of deuterium incorporation. This is accomplished by determining the observed averages of the undeuterated and fully deuterated spectra using the conventional formula described elsewhere. […] Statistical significance for the differential HDX data is determined by an unpaired t-test for each time point, a procedure that is integrated into the HDX Workbench software.
Data Statistics: Deuterium uptake for each peptide is calculated as the average of % D for all on-exchange time points and the difference in average %D values between the apo and ligand bound samples is presented as a heat map with a color code given at the bottom of the figure (warm colors for deprotection and cool colors for protection). […] Peptides with non-significant changes between the two states are colored gray. The exchange at the first two residues for any given peptide is not colored.

[1] = both ligand-heterodimer-VBS complexes (DR3, DR3 half-site)

SMILES	decrease in solvent exchange within H12 of VDR upon SRC1 RID binding	ΔΔHDX in the VDR hinge region (aa97−108) [%]	further reduction in deuterium exchange of VDR AF2 H12 upon binding of TRPV6 VBS (ligand-bound heterodimer, not observed upon binding the BGLAP VBS)	protection to solvent exchange at VDR AF2 surface upon SRC1 RID interaction (ligand-heterodimer-BGLAP VBS complex)	protection to solvent exchange at VDR AF2 surface upon SRC1 RID interaction (ligand-heterodimer-TRPV6 VBS complex)	decreased exchange for H1 of VDR upon SRC1 RID interaction [1]	decreased exchange for H3 of VDR upon SRC1 RID interaction [1]
CCC(CC)(c1ccc(OCC(O)C(C)(C)C)c(C)c1)c1ccc(C(=O)N(C)CC(=O)O)c(C)c1 (stereo not drawn) [Cmpd1, [(4-{1-ethyl-1-[4-(2-hydroxy-3,3-dimethyl-butoxy)-3-methyl-phenyl]-propyl}-2-methyl-benzoyl)-methyl-amino]-acetic acid]	~ 11%	21					
CCC(CC)(c1ccc(OCC(O)C(C)(C)C)c(C)c1)c1cc(C)c(C(=O)Nc2nnn[nH]2)s1 (stereo not drawn) [Cmpd3, 3'-[4-(2-hydroxy-3,3-dimethylbutoxy)-3-methylphenyl]-3'-[5-(tetrazol-5-yl-aminocarbonyl)-4-methylthiophen-2-yl]pentane]			~ 13%	~ 20%	~ 9%		
CCc1cc(C(CC)(CC)c2ccc(OCC(O)C(C)(C)C)c(C)c2)sc1C(=O)N[C@@H](C)C(=O)O (single isomer, unassigned) [Cmpd2, L-2-[(5-{1-Ethyl-1-[4-(2-hydroxy-3,3-dimethyl-butoxy)-3-methyl-phenyl]-propyl}-3-ethyl-thiophene-2-carbonyl)-amino]-propionic acid]	~ 20%	19				~ 6%	~ 9%
